Measured values: patent EP1022028A1, “SUSTAINED-RELEASE ORAL PREPARATION” (Takeda Chemical Industries, Ltd., priority 1997, dated 1999)

Assays:
[1] = acute oral toxicity (LD50) in mice; settings: mouse, in vivo, mice (NRM1)
Source text: (§1) The sustained-release oral preparation of the present invention is low in toxic potential and can be administered safely to mammals (e.g. cat, bovine, dog, horse, goat, monkey, human) requiring the treatment or prophylaxis of diabetes or inhibition of postprandial hyperglycemia. Particularly, the valiolamine derivative for use in the present invention, for example [2-hydroxy-1-(hydroxymethyl)ethyl]valiolamine (voglibose), is very high in safety rating with the acute oral toxicity (LD50) values in mice (NRM1) and rats (Wistar) being 14.7 ∼ 21.5 grams/kilogram body weight (mice) and about 20 grams/kilogram body weight (rats), respectively.

[2] = acute oral toxicity (LD50) in rats; settings: rat, in vivo, rats (Wistar)
Source text: as §1

With `OCC(CO)N[C@H]1C[C@](O)(CO)[C@@H](O)[C@H](O)[C@H]1O` [voglibose, 1L(1S)-(1(OH)2,3,5/1,3)-5-[[2-hydroxy-1-(hydroxymethyl)ethyl]amino]-1-C-(hydroxymethyl)-1,2,3,4-cyclohexanetetrol] the LD50 [1] was 14700 to 21500 mg/kg and the LD50 [2] was about 20000 mg/kg.
